Assay results from ChEMBL document CHEMBL1938307, “Synthesis, pharmacological evaluation and docking studies of N-(benzo[d]thiazol-2-yl)-2-(piperazin-1-yl)acetamide analogs as COX-2 inhibitors” (Bioorg Med Chem Lett, 2012).

Legend:
Rattus norvegicus [1] = assay: Antiinflammatory activity in Wistar rat assessed as inhibition of carrageenan-induced paw edema at 30 mg/kg after 2 hrs; format: functional
Rattus norvegicus [2] = assay: Ulcerogenic effect in Wistar rat assessed as lesions in stomach area at 90 mg/kg after 6 hrs; format: toxicity, organism-based; set-up: dose 90 mg/kg; details: in vivo
Rattus norvegicus [3] = assay: Ulcerogenic effect in Wistar rat assessed as gastric bleeding at 90 mg/kg after 6 hrs; format: toxicity, organism-based, Stomach; set-up: dose 90 mg/kg; details: in vivo

Structure (SMILES) | inhibition in vivo at 30 mg/kg (Rattus norvegicus [1]) [%] | UI (Rattus norvegicus [2]) | UI (Rattus norvegicus [3])
CCN1CCN(CC(=O)Nc2nc3ccccc3s2)CC1 | 13 | – | –
O=C(CN1CCNCC1)Nc1nc2ccccc2s1 | 41.3 | 1.24 | 1.24
O=C(CN1CCCNCC1)Nc1nc2ccccc2s1 | 8.6 | – | –
O=C(CN1CCN(c2ccccc2)CC1)Nc1nc2ccccc2s1 | 23.9 | – | –
COc1ccc2sc(NC(=O)CN3CCNCC3)nc2c1 | 2.17 | – | –
CCN1CCN(CC(=O)Nc2nc3cc(OC)ccc3s2)CC1 | 17.4 | – | –
COc1ccc2sc(NC(=O)CN3CCCNCC3)nc2c1 | 17.4 | – | –
COc1ccc2sc(NC(=O)CN3CCN(c4ccccc4)CC3)nc2c1 | 21.7 | – | –
O=C(CN1CCNCC1)Nc1nc2cc([N+](=O)[O-])ccc2s1 | 12.3 | – | –
CCN1CCN(CC(=O)Nc2nc3cc([N+](=O)[O-])ccc3s2)CC1 | 17.4 | – | –
O=C(CN1CCCNCC1)Nc1nc2cc([N+](=O)[O-])ccc2s1 | 17.4 | – | –
O=C(CN1CCN(c2ccccc2)CC1)Nc1nc2cc([N+](=O)[O-])ccc2s1 | 34.8 | 1.21 | 1.21
COc1ccc2cc([C@H](C)C(=O)O)ccc2c1 [NAPROXEN] | 71.7 | 2.5 | 2.5
CS(=O)(=O)c1ccc(C2=C(c3ccccc3)C(=O)OC2)cc1 [ROFECOXIB] | 81 | – | –
